In patent US12054494B2, “Compound with anticancer activity” (KYOWA KIRIN CO., LTD., priority 2018, dated 2024):

System: MYC mRNA expression in SU-DHL-4 cells
Assay: Suppressive effect on MYC mRNA expression (qRT-PCR)
Type: cell-based
Details: test compound 100 nmol/L, 6 hours
Procedure: Suppressive Effect on MYC mRNA Expression
SU-DHL-4 cells were cultured at 37° C. using a carbon dioxide gas incubator (95% air, 5% CO2) in RPMI1640 medium in which FBS in an amount to give a final concentration of 10 vol % and PS in an amount to give a final concentration of 1 vol % were added. The cells were passaged twice a week at a volume of 20-40 mL so as to maintain a cell concentration of 1×10^6 cells/mL or less.
The cultured SU-DHL-4 cells were seeded at 6×10^5 cells/well in a transparent 6-well plate (Code No. 140675, Thermo Fisher Scientific). After seeding, the cells were precultured at 37° C. in a carbon dioxide gas incubator for 18 to 25 hours. Next, a 0.1 mmol/L DMSO solution of the test compound was prepared, diluted so that the concentration will be 200 times the final concentration in the RPMI1640 medium containing the above FBS and PS, and 1/200 volume of the diluted solution was added to each well. At this time, the final concentration of DMSO was adjusted to be 0.1 vol %. After adding the test compound, the cells were cultured at 37° C. in a carbon dioxide gas incubator for 6 hours.
Then, the cells were collected by centrifugation and used for extraction of mRNA. mRNA extraction from cells was performed using Maxwell® 16 LEV simplyRNA Purification Kits (Code No. AS1270, Promega). The mRNA recovery protocol was performed according to the manufacturer's recommended protocol attached to the kit.
0.001 mg of the recovered mRNA was converted to cDNA by SuperScript IV VILO Master Mix with ezDNase Enzyme (Code No. 11766050, Thermo Fisher Scientific). The cDNA conversion was performed, according to the manufacturer's recommended protocol attached to the kit, in 0.020 mL of the reaction solution, and GeneAmp® PCR System 9700 (Applied Biosystems) was used. The cDNA-converted sample was diluted 10-fold by adding 0.180 mL of RNase Free Water (Code No. 10977-023, Thermo Fisher Scientific) and used for quantitative real-time polymerase chain reaction (qRT-PCR). For the calibration curve of qRT-PCR, 0.08 mL of RNase Free Water was added to a cDNA sample using DMSO as a test compound for 5-fold dilution. Further, two 5-fold dilutions were prepared stepwise, and these three samples were used as the calibration curve samples.
The following reagents were used for qRT-PCR: TaqMan Gene Expression Assays, Inventoried (Primer probe: Code No. 4331182, Thermo Fisher Scientific, Assay ID: (i) MYC: Hs00153408_m1, (ii) ACTB: Hs01060665_g1, (iii) GAPDH: Hs04420697_g1, (iv) HPRT1: Hs02800695_m1); 2X TaqManR Fast Universal PCR Master Mix, no AmpEraseR UNG (Master Mix: Code No. 4367846, Thermo Fisher Scientific).
Primer probe (0.001 mL), Master Mix (0.010 mL), water (0.004 mL) and the diluted cDNA sample (0.005 mL) were mixed, and qRT-PCR analysis was performed. For qRT-PCR analysis, QuantStudio 7 Flex (Thermo Fisher Scientific) or 7500 Fast Real-Time PCR (Applied Biosystems) was used to measure in Fast mode and analyze. The expression level of the MYC gene was determined by quantifying ACTB, GAPDH, and HPRT1 as housekeeping genes and correcting by the following formula to calculate the suppression rate of (%) of MYC mRNA expression when the test compound was allowed to act at a concentration of 100 nmol/L. Corrected MYC expression=A/B • A: MYC expression level • B: Geometric mean of expression levels of ACTB, GAPDH and HPRT1
Using the corrected values, the suppression rate of MYC expression for the wells to which […] was calculated by the following formula. Suppression rate of MYC expression (%)=100−C/D×100 • C: Corrected MYC expression level in a well containing test compound • D: Corrected MYC expression level in a well to which test compound was not added

| SMILES | Suppression rate of MYC mRNA expression [%] |
| --- | --- |
| CCC(=O)N1c2ccccc2[C@H](Nc2ccc(NC(=O)C#CCNC(=O)C3CCC(N[C@@H]4C[C@H](C)N(C(=O)CC)c5ccccc54)CC3)cc2)C[C@@H]1C (relative stereo) [Compound 8g, (1R,4r)-4-(((2S*,4R*)-2-Methyl-1-propionyl-1,2,3,4-tetrahydroquinolin-4-yl)amino)-N-(4-((4-(((2S,4R)-2-methyl-1-propionyl-1,2,3,4-tetrahydroquinolin-4-yl)amino)phenyl)amino)-4-oxobut-2-yn-1-yl)cyclohexane-1-carboxamide] | 96.6 |
| CCC(=O)N1c2ccccc2[C@H](NCCCCC(=O)NCc2cn(-c3ccc(N[C@@H]4C[C@H](C)N(C(=O)CC)c5ccccc54)cc3)nn2)C[C@@H]1C (relative stereo) [Compound 12f, 5-(((2S*,4R*)-2-Methyl-1-propionyl-1,2,3,4-tetrahydroquinolin-4-yl)amino)-N-((1-(4-(((2S,4R)-2-methyl-1-propionyl-1,2,3,4-tetrahydroquinolin-4-yl)amino)phenyl)-1H-1,2,3-triazol-4-yl)methyl)pentane amide] | 97.9 |
| CCC(=O)N1c2ccccc2[C@H](Nc2ccc(-c3nnc(CNC(=O)[C@H]4CC[C@H](N[C@@H]5C[C@H](C)N(C(=O)CC)c6ccccc65)CC4)o3)cc2)C[C@@H]1C [Compound 7q, (1R,4R)-4-(((2S,4R)-2-Methyl-1-propionyl-1,2,3,4-tetrahydroquinolin-4-yl)amino)-N-((5-(4-(((2S,4R)-2-methyl-1-propionyl-1,2,3,4-tetrahydroquinolin-4-yl)amino)phenyl)-1,3,4-oxadiazol-2-yl)methyl)cyclohexane-1-carboxamide] | 97.4 |
| CCC(=O)N1c2ccccc2[C@H](Nc2ccc(NC(=O)CNC(=O)N[C@H]3CC[C@H](N[C@@H]4C[C@H](C)N(C(=O)CC)c5ccccc54)CC3)cc2)C[C@@H]1C [Compound 8j, 2-(3-((1R,4R)-4-(((2S,4R)-2-Methyl-1-propionyl-1,2,3,4-tetrahydroquinolin-4-yl)amino)cyclohexyl)ureido)-N-(4-(((2S,4R)-2-methyl-1-propionyl-1,2,3,4-tetrahydroquinolin-4-yl)amino)phenyl)acetamide] | 97.2 |
| CCC(=O)N1c2ccccc2[C@H](Nc2ccc(NC(=O)CCCC(=O)NC3CCN(Cc4cc(O)cc(-c5c(C)noc5C)c4)CC3)cc2)C[C@@H]1C [Compound 12c, N^1-(1-(3-(3,5-Dimethylisoxazol-4-yl)-5-hydroxybenzyl)piperidinyl)-N^5-(4-(((2S,4R)-2-methyl-1-propionyl-1,2,3,4-tetrahydroquinolin-4-yl)amino)phenyl)glutaramide] | 97.8 |
| Cc1sc2c(c1C)C(c1ccc(Cl)cc1)=N[C@@H](CC(=O)NCCOCCOCCOCCOCCOCCOCCOCCNC(=O)C[C@@H]1N=C(c3ccc(Cl)cc3)c3c(sc(C)c3C)-n3c(C)nnc31)c1nnc(C)n1-2 [compound 2, reference compound] | 57.7 |
| CCC(=O)N1c2ccccc2[C@H](Nc2ccc(CCC(=O)NCC3(NC4CCC(N[C@@H]5C[C@H](C)N(C(=O)CC)c6ccccc65)CC4)COC3)cc2)C[C@@H]1C (some centres unmarked) [Compound 7h] | 97.5 |
| CCC(=O)N1c2ccccc2[C@H](Nc2ccc(C(=O)NCCCNC(=O)c3ccc(C4=N[C@@H](CC(=O)OC5CCC(O)CC5)c5nnc(C)n5-c5sc(C)c(C)c54)cc3)cc2)C[C@@H]1C (stereo partly drawn) [Compound 13d, 4-Hydroxycyclohexyl 2-((S)-2,3,9-trimethyl-4-(4-((3-(4-(((2S,4R)-2-methyl-1-propionyl-1,2,3,4-tetrahydroquinolin-4-yl)amino)benzamide)propyl)carbamoyl)phenyl)-6H-thieno[3,2-f][1,2,4]triazolo[4,3-a][1,4]diazepin-6-yl)acetate] | 97.2 |
| CCC(=O)N1c2ccccc2[C@H](N[C@H]2CC[C@H](NC(=O)C#CCNC(=O)[C@H]3CC[C@H](N[C@@H]4C[C@H](C)N(C(=O)CC)c5ccccc54)CC3)CC2)C[C@@H]1C (relative stereo) [Compound 9d, (1R,4R)-4-(((2S*,4R*)-2-Methyl-1-propionyl-1,2,3,4-tetrahydroquinolin-4-yl)amino)-N-(4-(((1R,4R)-4-(((2S,4R)-2-methyl-1-propionyl-1,2,3,4-tetrahydroquinolin-4-yl)amino)cyclohexyl)amino)-4-oxobut-2-yn-1-yl)cyclohexane-1-carboxamide] | 98.0 |
| CCC(=O)N1c2ccccc2[C@H](Nc2ccc(Cn3cc(C(=O)Nc4ccc(N[C@@H]5C[C@H](C)N(C(=O)CC)c6ccccc65)cc4)nn3)cc2)C[C@@H]1C [Compound 5j, 1-(4-(((2S,4R)-2-Methyl-1-propionyl-1,2,3,4-tetrahydroquinolin-4-yl)amino)benzyl)-N-(4-(((2S,4R)-2-methyl-1-propionyl-1,2,3,4-tetrahydroquinolin-4-yl)amino)phenyl)-1H-1,2,3-triazolee-4-carboxamide] | 96.8 |
| CCC(=O)N1c2ccccc2[C@H](Nc2ccc(NC(=O)CCCC(=O)NC3CCC(N[C@@H]4C[C@H](C)N(C(=O)CC)c5ccccc54)CC3)cc2)C[C@@H]1C (stereo partly drawn) [Compound 7o, N^1-((1R,4r)-4-(((2S,4R)-2-Methyl-1-propionyl-1,2,3,4-tetrahydroquinolin-4-yl)amino)cyclohexyl)-N^5-(4-(((2S,4R)-2-methyl-1-propionyl-1,2,3,4-tetrahydroquinolin-4-yl)amino)phenyl)glutaramide] | 97.4 |
| CCC(=O)N1c2ccccc2[C@H](Nc2ccc(C(=O)NCCCNC(=O)c3ccc(C4=N[C@@H](CC(=O)OCCCOC)c5nnc(C)n5-c5sc(C)c(C)c54)cc3)cc2)C[C@@H]1C [Compound 13h, 3-Methoxypropyl 2-((S)-2,3,9-trimethyl-4-(4-((3-(4-(((2S,4R)-2-methyl-1-propionyl-1,2,3,4-tetrahydroquinolin-4-yl)amino)benzamide)propyl)carbamoyl)phenyl)-6H-thieno[3,2-f][1,2,4]triazolo[4,3-a][1,4]diazepin-6-yl)acetate] | 97.4 |
| CCC(=O)N1c2ccccc2[C@H](Nc2ccc(C(=O)NCCNS(=O)(=O)c3ccc(N[C@@H]4C[C@H](C)N(C(=O)CC)c5ccccc54)cc3)cc2)C[C@@H]1C [Compound 4d, 4-{[(2S,4R)-2-Methyl-1-propionyl-1,2,3,4-tetrahydroquinolin-4-yl]amino}-N-{2-[(4-{[(2S,4R)-2-methyl-1-propionyl-1,2,3,4-tetrahydroquinolin-4-yl]amino}phenyl)sulfonamide]ethyl}benzamide] | 98.3 |
| CCC(=O)N1c2ccccc2[C@H](Nc2ccc(NC(=O)N3CCN(C(=O)C4CCC(N[C@@H]5C[C@H](C)N(C(=O)CC)c6ccccc65)CC4)CC3)cc2)C[C@@H]1C (stereo partly drawn) [Compound 7p, 4-((1R,4r)-4-(((2S,4R)-2-Methyl-1-propionyl-1,2,3,4-tetrahydroquinolin-4-yl)amino)cyclohexane-1-carbonyl)-N-(4-(((2S,4R)-2-methyl-1-propionyl-1,2,3,4-tetrahydroquinolin-4-yl)amino)phenyl)piperazine-1-carboxamide] | 97.9 |
